Assay results as given in patent US10703760B2, “Morphic forms of marizomib and uses thereof” (Celgene International II Sàrl, priority 2016, dated 2020).

Legend:
Type in all cases: physicochemical
[1] = Thermogravimetric analysis (TGA)
Protocol: TGA data were collected on a TA Instruments Q500 TGA, equipped with a 16-position auto-sampler. The instrument was temperature calibrated using certified Alumel™ and Nickel. Typically 5-10 mg of each sample was loaded onto a pre-tared aluminum DSC pan and heated at 10° C./min from ambient temperature to 350° C. A nitrogen purge at 60 ml/min was maintained over the sample.
TG analyses were performed using a TA Instruments Q5000 IR thermogravimetric analyzer. Temperature calibration was performed using nickel and Alumel™. Each sample was placed in an aluminum pan. The sample was hermetically sealed, the lid pierced, then inserted into the TG furnace. The furnace was heated under nitrogen.

[2] = XRPD after storage for four years at 2-8° C.
Text: Without wishing to be bound by theory, the results of FIGS. 5 and 6 are further supported by FIG. 7. […] (710).

[3] = Polymorph screen of marizomib Sample 4 (evaporation, cooling, solvent/antisolvent, slurry, grinding, heat stress, amorphous attempts)
Protocol: For slow evaporation (SE), solutions containing marizomib Sample 4 in selected solvents were allowed to evaporate at ambient temperature from vials covered with perforated aluminum foil. For fast evaporation (FE), solutions containing marizomib Sample 4 in selected solvents were allowed to evaporate at ambient temperature from open vials. The results are given below in Table-10. For flash evaporation, […] of disordered marizomib Sample 4 were added dropwise to pre-warmed glass vials, allowing the solvent to flash evaporate immediate upon contact. Resulting solids were collected for analysis. The corresponding figure numbers are given in the right hand column.
For crash cooling (CC), concentrated solutions of marizomib Sample 4 were prepared at elevated temperature and filtered through pre-warmed 0.2-μm nylon filters into a clean vial pre-chilled in a dry ice/acetone bath. For fast cooling (FC) and slow cooling (SC), solutions containing marizomib Sample 4 in selected solvents at elevated temperatures in sealed vials. Solutions were then filtered into clean vials with 0.2-μm nylon filters and removed from the heating plate and left at ambient conditions (FC) or allowed to cool to specified temperature on the heating plate (SC). The results are given below in Table-11. As set forth below, the ratio of solvent mixtures are given by volume. Temperature and time are approximate. […]

Compound | TGA weight loss prior to decomposition [1] | TGA (onset, decomp.) ([1]; Sample 4 prior to testing) | TGA: decomposition after ([1]; as stated in cocrystal discussion) | weight loss (TGA) ([1]; solids from 2-pyrrolidone (1:1) cocrystal experiment, from 27.1° C. to 92.0° C.) | weight loss (TGA) ([1]; solids from Melamine (1:1) cocrystal experiment, from 30.2° C. to 104.0° C.) | weight loss (TGA) ([1]; solids from Melamine (1:1) cocrystal experiment, from 30.2° C. to 146.0° C.) | XRPD spectra initially versus after storage [2] | Morphic form observed after exposure to solvents and anti-solvents [3]
C[C@@]12OC(=O)[C@]1([C@@H](O)[C@@H]1C=CCCC1)NC(=O)[C@@H]2CCCl [Sample 4, marizomib] | negligible weight loss prior to decomp | 168 °C (onset, decomp.) | approximately 150 °C |  |  |  |  | 
C[C@@]12OC(=O)[C@]1([C@@H](O)[C@@H]1C=CCCC1)NC(=O)[C@@H]2CCCl [marizomib] |  |  |  | 5.0% | 10.3% | C. 21.1% | substantially identical | only morphic Form I was observed
